Legend:
human TLR4 [1] = target: T1, human TLR4 (Homo sapiens, UniProt O00206+Q9Y6Y9); experiment: SEAP assay, agonist dose response in human TLR4 HEK-Blue reporter cells; assay type: cell-based; parameters: host or cells: HEK-Blue (HEK293-derived) reporter cells; details: for EC50 / agonist profile: human TLR4 HEK-Blue reporter cells; for EC50: read-out: EC50 for stimulation
Method: (§1) Human and mouse HEK-Blue reporter cells express human or mouse CD14, MD2, and TLR4 and secreted embryonic alkaline phosphatase (SEAP) under control of a promoter with binding sites for NFκB and AP-1 transcription factors (InvivoGen cat. nos. hkb-htlr4 and hkb-mtlr4). Cells were cultured as directed by the supplier, with the exception that Glutamax (ThermoFisher cat. no. 10569010) was used in place of L-glutamine, and TrypLE Express (ThermoFisher cat. no. 12605010) was used to release adherent cells for each passage. BALB/c mouse RAW264.7 and human THP-1 cells (ATCC® cat. nos. TIB-71 and TIB-202) were cultured in DMEM (4.5 g/L D-Glucose with 2 mM L-glutamine, 1 mM sodium pyruvate, 100 U/ml penicillin and 100 μg/ml streptomycin) supplemented with 10% heat-inactivated FBS. THP-1 cells were exposed to phorbol-12-myristate-13-acetate (PMA, InvivoGen cat no. tlrl-pma), 5 ng/ml, for 48 h prior to treatment with TLR4 agonists. Bone marrow-derived dendritic cells (BMDCs) were generated using C57BL/6 mouse femurs following the exact method published by Lutz et al. ([29]) except that 5 rather than 20 ng/ml recombinant GM-CSF was used to differentiate the DC. Human peripheral blood […] (PBMCs) were prepared from venous blood of healthy volunteers that had been collected using sodium citrate as anti-coagulant, 20 ml of which was mixed with 15 ml calcium- and magnesium-free Hank’s Balanced Saline Solution (HBSS) and then laid over 6 ml Histopaque®-1077 (1.077 g/ml, Sigma-Aldrich cat no. 10771) for density gradient centrifugation. The buffy coat layer was collected by pipette, washed once in HBSS, once in serum-free RPMI-1640, and then the PBMCs were resuspended in RPMI-1640 supplemented with 100 U/ml penicillin, 100 µg/ml streptomycin, 1 mM Na-Pyruvate, 2 mM L-glutamine, 50 μM βME and 10% heat-inactivated, male AB human serum for culture.
(§2) SEAP assays were performed to evaluate the extent to which TLR4 signaling was activated in HEK-Blue reporter cells expressing mouse or human receptors (CD14, MD2 and TLR4). Reporter cells were harvested when 70–80% confluent and plated in 96-well, flat-bottom microtiter plates either 1 h, one day or two days (5 × 10^4, 4 × 10^4 or 2 × 10^4 cells/well, respectively) before addition of TLR4 agonists for 18–24 h. Culture supernatants were transferred to U-bottom microtiter plates, centrifuged and transferred again to microtiter plates to ensure reporter cells were not present. The culture supernatants were added to QUANTI-BLUE substrate following instructions provided by the manufacturer (InvivoGen cat. nos. rep-qbl or rep-qbs) and incubated at 37°C in a tissue culture incubator. At successive intervals beginning 10 min after mixing the supernatants and substrate, the plates were placed in an Emax plate reader (Molecular Devices LLC) and optical density was measured at visible light wavelength […] (OD650). The shortest incubations at which dose response curve fits produced maximal R^2 ‘goodness of fit’ values, as determined by GraphPad Prism software, were used for analysis.
(§3) Pharmacological profiles of the TLR4 reagents were generated by performing dose response curves in one of four formats. 1) Agonist potency and efficacy (EC50 and height of dose plateau, respectively) were measured by diluting TLR4 reagents successively in complete culture medium [DMEM or RPMI supplemented with fetal bovine serum (FBS) or RPMI supplemented with human serum, depending on cell-type]. Half-log step dilutions were performed in 96-well, U-bottom microtiter plates using a multichannel pipette to transfer and mix the suspensions, with fresh tips used for each dilution step. One-tenth (20 μl) volumes from wells of the dilution plate were then transferred to wells containing cells that had been plated in nine-tenth volumes (180 μl) of culture medium. […]

mouse TLR4 [2] = target: T2, mouse TLR4 (Mus musculus, UniProt Q9JHF9+Q9QUK6); experiment: SEAP assay, agonist dose response in mouse TLR4 HEK-Blue reporter cells; assay type: cell-based; parameters: host or cells: HEK-Blue (HEK293-derived) reporter cells; details: for agonist profile: mouse TLR4 HEK-Blue reporter cells
T2 sequence (Q9QUK6 26-835): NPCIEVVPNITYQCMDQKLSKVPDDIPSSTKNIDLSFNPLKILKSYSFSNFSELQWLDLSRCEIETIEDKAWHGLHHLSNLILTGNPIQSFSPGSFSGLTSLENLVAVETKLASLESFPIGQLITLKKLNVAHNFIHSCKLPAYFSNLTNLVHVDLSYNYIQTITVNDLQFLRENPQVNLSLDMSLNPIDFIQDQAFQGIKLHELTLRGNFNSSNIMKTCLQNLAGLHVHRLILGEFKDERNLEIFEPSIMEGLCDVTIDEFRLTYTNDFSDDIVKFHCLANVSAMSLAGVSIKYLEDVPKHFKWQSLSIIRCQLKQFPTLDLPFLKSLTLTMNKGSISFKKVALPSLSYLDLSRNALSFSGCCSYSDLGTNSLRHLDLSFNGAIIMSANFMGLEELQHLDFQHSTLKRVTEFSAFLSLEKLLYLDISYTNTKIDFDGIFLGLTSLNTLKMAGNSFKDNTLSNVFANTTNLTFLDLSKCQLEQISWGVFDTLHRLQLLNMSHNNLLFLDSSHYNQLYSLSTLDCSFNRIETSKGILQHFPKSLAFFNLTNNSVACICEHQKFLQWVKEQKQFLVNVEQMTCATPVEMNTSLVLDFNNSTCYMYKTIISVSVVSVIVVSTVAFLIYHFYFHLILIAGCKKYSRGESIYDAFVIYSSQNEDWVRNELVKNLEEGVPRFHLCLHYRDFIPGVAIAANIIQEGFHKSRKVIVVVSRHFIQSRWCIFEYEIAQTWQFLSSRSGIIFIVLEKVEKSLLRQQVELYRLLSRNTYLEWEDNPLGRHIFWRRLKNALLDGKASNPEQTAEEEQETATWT
T2 sequence (Q9JHF9 19-160): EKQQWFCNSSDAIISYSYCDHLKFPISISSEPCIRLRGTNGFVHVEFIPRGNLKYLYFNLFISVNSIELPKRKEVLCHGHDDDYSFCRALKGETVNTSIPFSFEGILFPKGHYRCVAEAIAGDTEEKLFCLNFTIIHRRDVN
Method: as §1, §2, §3

human TLR4 [3] = target: T1, human TLR4; experiment: Inhibition curves (IC50 format): antagonist diluted in a fixed concentration of reference agonist, human TLR4 HEK-Blue SEAP; assay type: cell-based; parameters: host or cells: HEK-Blue (HEK293-derived) reporter cells; details: for inhibition of PHAD stimulation: fixed PHAD 1 μM, 22 h
Method: as §2
(§4) Pharmacological profiles of the TLR4 reagents were generated by performing dose response curves in one of four formats. 1) Agonist potency and efficacy (EC50 and height of dose plateau, respectively) were measured by diluting TLR4 reagents successively in complete culture medium [DMEM or RPMI supplemented with fetal bovine serum (FBS) or RPMI supplemented with human serum, depending on cell-type]. Half-log step dilutions were performed in 96-well, U-bottom microtiter plates using a multichannel pipette to transfer and mix the suspensions, with fresh tips used for each dilution step. One-tenth (20 μl) volumes from wells of the dilution plate were then transferred to wells containing cells that had been plated in nine-tenth volumes (180 μl) of culture medium. 2) Mixed agonist–antagonist potency and efficacy were measured by mixing a TLR4 agonist with a candidate antagonist at a fixed ratio and then performing half-log step dilutions before treating HEK reporter cells. Analysis of values obtained from SEAP assays of culture supernatants was then performed as described for preparations containing agonist alone, above. 3) Competitive vs allosteric or non-competitive antagonist type was evaluated by diluting a reference agonist within a fixed concentration of a candidate inhibitor in half-log steps, treating HEK reporter cells, performing SEAP assays and then analyzing the data as described for agonist assays, above. Competitive antagonists are characterized by values that reach the same dose plateau as for a reference, full agonist, while shifting potency to higher EC50 values. […] 4) Inhibitory potency (IC50) was measured by diluting antagonists within a fixed concentration of a reference agonist, treating HEK reporter cells and performing SEAP assays as described.

human TLR4 [4] = target: T1, human TLR4; experiment: Mixed agonist-antagonist dose curves at fixed ratio, human TLR4 HEK-Blue SEAP; assay type: cell-based; parameters: host or cells: HEK-Blue (HEK293-derived) reporter cells
Method: as §2, §4

mouse TLR4 [5] = target: T2, mouse TLR4; parameters: method as in PMID 1918061; details: cited from earlier work
human TLR4 [6] = target: T1, human TLR4; experiment: Competitive vs non-competitive antagonist type: agonist diluted in a fixed concentration of inhibitor, human TLR4 HEK-Blue SEAP; assay type: cell-based; parameters: host or cells: HEK-Blue (HEK293-derived) reporter cells; details: fixed ML3 3 μM, ML4A 3 μM or Lipid IVa 0.1 μM; agonist PHAD or 3D-6A-PHAD diluted from 10 μM
Method: as §2
Pharmacological profiles of the TLR4 reagents were generated by performing dose response curves in one of four formats. 1) Agonist potency and efficacy (EC50 and height of dose plateau, respectively) were measured by diluting TLR4 reagents successively in complete culture medium [DMEM or RPMI supplemented with fetal bovine serum (FBS) or RPMI supplemented with human serum, depending on cell-type]. […] 2) Mixed agonist–antagonist potency and efficacy were measured by mixing a TLR4 agonist with a candidate antagonist at a fixed ratio and then performing half-log step dilutions before treating HEK reporter cells. […] 4) Inhibitory potency (IC50) was measured by diluting antagonists within a fixed concentration of a reference agonist, treating HEK reporter cells and performing SEAP assays as described.

human TLR4 [7] = target: T1, human TLR4; parameters: method as in PMID 1918061; details: cited from earlier work

T1 sequence (O00206 24-839): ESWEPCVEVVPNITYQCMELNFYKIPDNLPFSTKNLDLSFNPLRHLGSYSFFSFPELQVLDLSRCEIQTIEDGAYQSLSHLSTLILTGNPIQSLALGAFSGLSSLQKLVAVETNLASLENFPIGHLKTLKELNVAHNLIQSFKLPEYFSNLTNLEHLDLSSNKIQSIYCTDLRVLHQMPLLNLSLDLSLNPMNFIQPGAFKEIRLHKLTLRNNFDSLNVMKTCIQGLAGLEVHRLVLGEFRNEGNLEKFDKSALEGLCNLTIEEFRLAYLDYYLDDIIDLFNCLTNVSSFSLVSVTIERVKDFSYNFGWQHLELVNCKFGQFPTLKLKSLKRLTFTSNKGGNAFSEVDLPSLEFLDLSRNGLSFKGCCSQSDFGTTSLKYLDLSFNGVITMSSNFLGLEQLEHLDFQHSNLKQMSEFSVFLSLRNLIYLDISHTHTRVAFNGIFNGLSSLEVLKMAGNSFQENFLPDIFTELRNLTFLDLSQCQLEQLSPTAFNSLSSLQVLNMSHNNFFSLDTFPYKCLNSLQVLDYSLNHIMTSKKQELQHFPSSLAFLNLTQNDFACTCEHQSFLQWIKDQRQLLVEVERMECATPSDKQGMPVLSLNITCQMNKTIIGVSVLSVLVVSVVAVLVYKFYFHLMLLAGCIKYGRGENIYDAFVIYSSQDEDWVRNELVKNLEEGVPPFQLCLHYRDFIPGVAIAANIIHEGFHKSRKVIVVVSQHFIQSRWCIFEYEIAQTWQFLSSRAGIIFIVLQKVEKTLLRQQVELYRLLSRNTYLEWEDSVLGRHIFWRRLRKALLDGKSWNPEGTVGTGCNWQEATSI
T1 sequence (Q9Y6Y9 17-160 limits assumed): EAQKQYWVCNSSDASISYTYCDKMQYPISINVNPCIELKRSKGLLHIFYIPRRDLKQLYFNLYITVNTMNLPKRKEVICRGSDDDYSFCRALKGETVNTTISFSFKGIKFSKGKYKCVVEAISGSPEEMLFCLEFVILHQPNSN

Compound	EC50 (human TLR4 [1]) [nM]	agonist profile (human TLR4 [1])	agonist profile (mouse TLR4 [2])	inhibition of PHAD stimulation (human TLR4 [3])	other results
CCCCCCCCCCCCCC(=O)OC(CCCCCCCCCCC)CC(=O)NC1C(O)OC(COC2OC(CO)C(OP(=O)(O)O)C(OC(=O)CC(CCCCCCCCCCC)OC(=O)CCCCCCCCCCCCC)C2NC(=O)CC(CCCCCCCCCCC)OC(=O)CCCCCCCCCCCCC)C(O)C1O (stereo not shown) [3D-6A-PHAD, reference compound]	300				
CCCCCCCCCCCCCC(=O)O[C@H](CCCCCCCCCCC)CC(=O)O[C@@H]1[C@@H](NC(=O)C[C@@H](CCCCCCCCCCC)OC(=O)CCCCCCCCCCC)[C@H](OC[C@H]2O[C@H](OP(=O)(O)O)[C@H](NC(=O)C[C@H](O)CCCCCCCCCCC)[C@@H](OC(=O)C[C@H](O)CCCCCCCCCCC)[C@@H]2O)O[C@H](CO)[C@H]1OP(=O)(O)O [Lipid A, reference compound]		most potent of the agonists tested	most potent of the agonists tested		ED50 (95% CI) (human TLR4 [1]; human TLR4 reporter cells, stimulatory curve fit, Figure 3C): 1.0 (0.8-1.1) ng/mL; ED50 (95% CI) (mouse TLR4 [2]; mouse Tlr4 reporter cells, stimulatory curve fit, Figure 3C): 0.7 (0.5-0.9) ng/mL
CCCCCCCCCCC[C@@H](O)CC(=O)N[C@H]1[C@H](OC[C@H]2O[C@H](OP(=O)(O)O)[C@H](NC(=O)C[C@H](O)CCCCCCCCCCC)[C@@H](OC(=O)C[C@H](O)CCCCCCCCCCC)[C@@H]2O)O[C@H](CO)[C@@H](OP(=O)(O)O)[C@@H]1OC(=O)C[C@H](O)CCCCCCCCCCC [Lipid IVa, reference compound]					inhibition of 3D-6A-PHAD stimulation (human TLR4 [3]; fixed 3D-6A-PHAD 300 nM): functioned as inhibitors; IC50 (human TLR4 [3]; fixed PHAD 30 nM, 95% CI given): 0.19 nM; effect on agonist dose curve in fixed-ratio mixture (human TLR4 [4]; mixed with PHAD at 1:60 or 1:20 antagonist:agonist): clearly flatted; effect on agonist dose curve in fixed-ratio mixture (human TLR4 [4]; mixed with PHAD at 1:180 antagonist:agonist): trending to a flattened curve; activity on mouse TLR4 (mouse TLR4 [5]): agonist of mouse TLR4; antagonist type (human TLR4 [6]): competitive antagonist curve; activity on human TLR4 (human TLR4 [7]): competitive antagonist of human TLR4
CCCCCCCCCCCCCC(=O)OC(CCCCCCCCCCC)CC(=O)OC1C(NC(=O)CC(CCCCCCCCCCC)OC(=O)CCCCCCCCCCC)C(OCC2OC(O)C(NC(=O)CC(O)CCCCCCCCCCC)C(O)C2O)OC(CO)C1OP(=O)(O)O (stereo not shown) [ML5A]		weaker agonists of human TLR4 than of mouse TLR4		only ML3 and ML4A showed inhibitory potential	
CCCCCCCCCCCCCCCC(=O)OC(CCCCCCCCCCC)CC(=O)NC1C(O)OC(COC2OC(CO)C(OP(=O)(O)O)C(OC(=O)CC(CCCCCCCCCCC)OC(=O)CCCCCCCCCCCCC)C2NC(=O)CC(CCCCCCCCCCC)OC(=O)CCCCCCCCCCC)C(O)C1O (stereo not shown) [ML6]		weaker agonists of human TLR4 than of mouse TLR4		only ML3 and ML4A showed inhibitory potential	
CCCCCCCCCCCCCC(=O)O[C@H](CCCCCCCCCCC)CC(=O)N[C@H]1[C@H](OC[C@H]2OC(O)[C@H](NC(=O)C[C@H](O)CCCCCCCCCCC)[C@@H](OC(=O)C[C@H](O)CCCCCCCCCCC)[C@@H]2O)O[C@H](CO)[C@@H](OP(=O)(O)O)[C@@H]1OC(=O)C[C@@H](CCCCCCCCCCC)OC(=O)CCCCCCCCCCCCC (stereo partly shown) [PHAD, phosphorylated hexa-acyl disaccharide, reference compound]	30	weak yet full agonist of both mouse and human TLR4	weak yet full agonist of both mouse and human TLR4		
